# Reference: patent US20060025448A1, “Hair growth stimulators” (CADILA HEALTHCARE LIMITED, priority 2004, published 2006)
# What was measured:
# [1] = Effect on body weight in high-fat diet fed male C57BL/6J mice; type: in vivo; conditions: for effect on body weight (in words): high-fat diet fed male C57BL/6 mice
# Protocol: (§1) The C57BL/6 mice were housed on a lightdark cycle in a room with temperature (22±2° C.) and humidity control. They were fed either a high-fat diet (HFD) (49% fat, 18% protein, 33% carbohydrate) or a standard mouse diet (STD) (8% fat, 19% protein, 73% carbohydrate). Six-week-old C57BL/6J male mice were given HFD or STD diets for 17 wks before drug treatment started. […] After this, mice were weighed and treated as per the following three groups, while the diet treatment continued.
# (§2) High-fat diet fed & vehicle treated (HFD-V), • High-fat diet fed & treated with 10 mg/kg Compound 2 (HFD-R 10 mg) • High-fat diet fed & treated with 10 mg/kg Compound 1 (HD-ZY 10 mg) • Compound 1 and Compound 2 were administered orally in distilled water with 0.1% Tween 80 one hour before the onset of the dark phase.
# (§3) The animals were observed daily. Body weights were recorded daily, and the animals were photographed on 28th day on the back, The results are mentioned in Table 1 and Table 2.
# male C57BL/6J mice = test: Effect on hair growth (bald area) in high-fat diet fed male C57BL/6J mice; type: in vivo; conditions: 10 mg/kg orally; for growth of body hair (in words): high-fat diet fed male C57BL/6 mice, 28 days
# Protocol: as §1, §2, §3
structure (smiles),measurement,setting,value
"Cc1c(C(=O)NN2CCCCC2)nn(-c2ccc(Cl)cc2Cl)c1-c1ccc(Cl)s1.Cl [Compound 1, Hydrochloride salt of 5-(5-Chloro-thiophen-2-yl)-1-(2,4-dichloro-phenyl)-4-methyl-1H-pyrazole-3-caxboxylic acid piperidin-1-ylamide]",Change in Body Weight in 28 days versus Day 0,"[1]; high-fat diet fed male C57BL/6J mice, 10 mg/kg orally, 28 days, n = 6",-1.7 ± 0.5 g
same,Body Weight on Day 28,"[1]; high-fat diet fed male C57BL/6J mice, 10 mg/kg orally, Day 28, n = 6",26.9 ± 1.1 g
same,Change in Body Weight versus HFD-V,"[1]; high-fat diet fed male C57BL/6J mice, 10 mg/kg orally, versus vehicle group, n = 6",-3.3 ± 1.8 g
same,Body Weight on Day 0,"[1]; high-fat diet fed male C57BL/6J mice, Day 0 (baseline before treatment), n = 6",29.2 ± 1.1 g
same,effect on body weight (in words),"[1]; 10 mg/kg orally, 28 days, 10 mg/kg",decrease in body weight
same,effect on body weight (in words),"[1]; 10 mg/kg orally, 28 days, listed as compound 1, 10 mg/kg",decreasing body weight
same,"bald area (where hair growth or pigmentation has not appeared), Area (Mean ± Standard Error Mean)","male C57BL/6J mice; high-fat diet fed male C57BL/6J mice, after 28th day of dosing, n = 6",0.011 ± 0.223 cm^2
same,growth of body hair (in words),male C57BL/6J mice; 10 mg/kg,significantly enhanced the growth of body hair
same,growth of body hair (in words),"male C57BL/6J mice; listed as compound 1, 10 mg/kg",able to stimulate hair growth
